Laboratory results as given in patent publication US11434534B2, “Optimizing therapeutic options in personalized medicine” (CureMatch, Inc., priority 2016, dated 2022).

Columns and labels:
[1] = test system: metastatic basal cell cancer; conditions: for response to earlier therapy: brain, bone and liver metastases, therapies before nivolumab
From the text: The interaction of this ligand (PD-L1) with the programmed death receptor (PD-1), expressed on T and B cells, alters the function of these cells leading to inhibition of autoimmunity and anti-tumor immunity.
The patient was started on nivolumab (OPDIVO®, anti-PD-1 antibody).

[2] = Tolerability in type 2 diabetes patient (Example 6); format: in vivo, human
From the text: A person over-weight man (Body Mass Index=37.5, clinical obesity class 2) with a 5-year history of type 2 diabetes consults a Diabetes Specialty Clinic in Paris (France) for recent weight gain, foot pain, and persistent nocturia. At the time of their initial appointment, the patient was taking simvastatin (ZOCOR®) for a hyperlipidemia and a “pancreatic elixir” in an attempt to improve their diabetes control. […] The laboratory tests performed the same day confirms the uncontrolled type 2 diabetes (evaluated by a level of glycosylated hemoglobin=8.3%-normal<7%), a normo-lipidemia, and an elevated urine micro-albumin level. The physician ordered a urine metabolite profiling. The post-analysis review of the results highlighted the upregulation of the IL-1 (interleukin 1), TNF (Tumor Necrosis Factor), and mTOR (Mammalian Target of Rapamycin) signaling pathways.
The association of IL-1 and TNF inhibitors together is not considered by the system, as it increases the risk of serious infections. […] All of these drugs are approved by the ANSM (French Agency for Medicines and Medical Products Security).

[3] = test system: hepatocellular carcinoma (HCC) with CDKN2A and CTNNB1 mutations; test: Clinical outcome of hepatocellular carcinoma patient (Example 1); format: in vivo, human; conditions: metastatic HCC after chemoembolization, before molecular profiling
From the text: Six months later, the physician logs in to the system via the web-interface and completes the physician's feedback survey regarding the regimen prescribed to their patient and the outcome observed. […] The entry corresponding to this observation was created in the clinical outcome database and will then be used in order to optimize similar cases.

In the case of N.N.[Cl][Pt][Cl] [cisplatin], the “response to earlier therapy” value [1] is reported as “short-lived response”.

With CC(=O)O[C@H]1C(=O)[C@@]2(C)[C@H]([C@H](OC(=O)c3ccccc3)[C@]3(O)C[C@H](OC(=O)[C@H](O)[C@@H](NC(=O)c4ccccc4)c4ccccc4)C(C)=C1C3(C)C)[C@]1(OC(C)=O)CO[C@@H]1C[C@@H]2O [paclitaxel] the “response to earlier therapy” value [1] was “short-lived response”.

In the case of CCC(C)(C)C(=O)O[C@H]1C[C@@H](C)C=C2C=C[C@H](C)[C@H](CC[C@@H]3C[C@@H](O)CC(=O)O3)[C@H]21 [simvastatin], the tolerability ([2]; taken for hyperlipidemia) is reported as “well-tolerated”.

For Cc1c(C(=O)Nc2ccc(N3C[C@@H](C)O[C@@H](C)C3)nc2)cccc1-c1ccc(OC(F)(F)F)cc1 [sonidegib], the “response to earlier therapy” value [1] was “non-responsive”.

With nivolumab: anti-PD-1 antibody the response on scans ([1]; after two months, PD-L1 (CD274) amplification) was “remarkable partial remission” and the toxicity ([1]; human, in vivo) was “no toxicity”.

With CS(=O)(=O)c1ccc(C(=O)Nc2ccc(Cl)c(-c3ccccn3)c2)c(Cl)c1 [vismodegib] the “response to earlier therapy” value [1] was “non-responsive”.

In the case of CNC(=O)c1cc(Oc2ccc(NC(=O)Nc3ccc(Cl)c(C(F)(F)F)c3)cc2)ccn1 [sorafenib], the “disease course under treatment” value [3] is reported as “continued to progress”.

With COc1ccc(Cl)cc1C(=O)NCCc1ccc(S(=O)(=O)NC(=O)NC2CCCCC2)cc1 [glibenclamide] the “adverse effects that led to stopping the drug” value ([2]; human, in vivo) was “dizziness, sweating, and agitation”.
